Bridge positions count the residues as written; N and C are the ends. Square brackets hold non-standard residues; d marks the D form. Peptide text beside a SMILES is read from it. * marks the point of attachment. ξ: configuration not given here. Bip = N[C@@H](Cc1ccc(-c2ccccc2)cc1)C(=O)O; Phe(3-Me) = Cc1cccc(C[C@H](N)C(=O)O)c1; Ala(4-THP) = N[C@@H](CC1CCOCC1)C(=O)O; NH(CH2)12COOH = O=C(O)CCCCCCCCCCCCN*; Val(3-OH) = CC(C)(O)[C@H](N)C(=O)O; 4Pal = N[C@@H](Cc1ccncc1)C(=O)O; 3Thi = N[C@@H](Cc1ccsc1)C(=O)O; Cha = N[C@@H](CC1CCCCC1)C(=O)O; Cit = NC(=O)NCCC[C@H](N)C(=O)O; Thr(3ξ) = CC(O)[C@H](N)C(=O)O; dDab = NCC[C@@H](N)C(=O)O; Carboxymethyl = O=C(O)C*; Orn = NCCC[C@H](N)C(=O)O; Aun = NCCCCCCCCCCC(=O)O; Dab = NCC[C@H](N)C(=O)O; Dap = NC[C@H](N)C(=O)O; AEEA = NCCOCCOCC(=O)O
biological target: T1, PD-1/PD-L1 interaction (PE-labeled human PD-L1-Ig binding to Jurkat cell line over-expressing human PD-1) (Homo sapiens, UniProt Q15116); assay: Jurkat-PD-1 Cell Binding High-Content Screening Assay (CBA); format: cell-based; conditions: Jurkat cell line over-expressing human PD-1; PE-labeled PD-L1-Ig 20 nM final; read-out: Jurkat hPD1-PDL1 IC50
T1 construct: expressed in transfected cells; host or cells: Jurkat
T1 sequence (Q15116 25-288): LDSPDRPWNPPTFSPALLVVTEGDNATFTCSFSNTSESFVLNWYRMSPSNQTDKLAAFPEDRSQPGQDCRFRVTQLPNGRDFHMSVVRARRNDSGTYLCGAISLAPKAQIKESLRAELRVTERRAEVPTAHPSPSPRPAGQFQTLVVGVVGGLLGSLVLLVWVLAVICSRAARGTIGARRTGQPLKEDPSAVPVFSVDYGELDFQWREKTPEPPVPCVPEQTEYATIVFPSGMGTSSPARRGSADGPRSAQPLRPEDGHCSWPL
How it was run: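 Jurkat cells over-expressing human PD-1 (8×10^3 per well, DMEM/10% FCS) preincubated with compound 2 h at 37° C, then PE-labeled human PD-L1-Ig (20 nM final) added for 1 h. Cells fixed with paraformaldehyde, Hoechst-stained, and bound fluorescence quantified by high-content imaging.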

SMILES	IC50 [nM]
Cc1cccc(C[C@@H]2NC(=O)[C@H](CC(=O)O)NC(=O)[C@H](Cc3ccc(OCC(=O)O)cc3)NC(=O)[C@H](C(C)O)NC(=O)CSC[C@@H](C(=O)N[C@@H](CCCCN)C(=O)NCCCCCCCCCCC(=O)O)NC(=O)[C@H](CCCCN)NC(=O)[C@H](C(C)C)NC(=O)[C@H](CC3CCCCC3)NC(=O)[C@H](CCN)NC(=O)[C@@H](CC(C)C)NC(=O)[C@H](CCCN)NC(=O)[C@H](CCCNC(N)=O)NC(=O)[C@H](Cc3ccc(-c4ccccc4)cc3)NC(=O)[C@H](C(C)C)NC2=O)c1 (stereo partly drawn) [Compound 3469] ({CH2CO}-[Thr(3ξ)]Y(Carboxymethyl)D[Phe(3-Me)]V[Bip][Cit][Orn][dL][Dab][Cha]VKCK[Aun]-OH; thioether N-14)	16.9
Cc1cccc(C[C@@H]2NC(=O)[C@H](CC(=O)O)NC(=O)[C@H](Cc3ccc(OCC(=O)O)cc3)NC(=O)[C@@H](CCN)NC(=O)CSC[C@@H](C(=O)N[C@@H](CCN)C(=O)NCCCCCCCCCCC(=O)O)NC(=O)[C@H](CO)NC(=O)[C@H](C(C)(C)O)NC(=O)[C@H](CC3CCCCC3)NC(=O)[C@H](CCN)NC(=O)[C@@H](CC(C)C)NC(=O)[C@H](CCCN)NC(=O)[C@H](Cc3ccc(OCC(=O)O)cc3)NC(=O)[C@H](Cc3ccc(-c4ccccc4)cc3)NC(=O)[C@H](Cc3ccc(OCC(=O)O)cc3)NC2=O)c1 [Compound 2236] ({CH2CO}-[dDab]Y(Carboxymethyl)D[Phe(3-Me)]Y(Carboxymethyl)[Bip]Y(Carboxymethyl)[Orn][dL][Dab][Cha][Val(3-OH)]SC[Dab][Aun]-OH; thioether N-14)	185
CC(C)C[C@H]1NC(=O)[C@H](CCCN)NC(=O)[C@H](Cc2ccc(O)cc2)NC(=O)[C@H](Cc2ccc(-c3ccccc3)cc2)NC(=O)[C@H](C(C)C)NC(=O)[C@H](Cc2c[nH]c3ccccc23)NC(=O)[C@H](CC(=O)O)NC(=O)[C@H](Cc2ccc(OCC(=O)O)cc2)NC(=O)[C@H](C(C)O)NC(=O)CSC[C@@H](C(=O)N[C@@H](CCN)C(=O)NCCCCCCCCCCC(=O)O)NC(=O)[C@H](CC2CCOCC2)NC(=O)[C@H](C(C)C)NC(=O)[C@H](CC2CCCCC2)NC(=O)[C@H](CCN)NC1=O (stereo partly drawn) [Compound 3424] ({CH2CO}-[Thr(3ξ)]Y(Carboxymethyl)DWV[Bip]Y[Orn][dL][Dab][Cha]V[Ala(4-THP)]C[Dab][Aun]-OH; thioether N-14)	133
Cc1cccc(C[C@@H]2NC(=O)[C@H](CC(=O)O)NC(=O)[C@H](Cc3ccc(OCC(=O)O)cc3)NC(=O)[C@H](CN)NC(=O)CSC[C@@H](C(=O)N[C@@H](C)C(=O)N[C@@H](CCC(=O)O)C(=O)NCCCCCCCCCCC(=O)O)NC(=O)[C@H](CCCN)NC(=O)[C@H](C(C)C)NC(=O)[C@H](CC3CCCCC3)NC(=O)[C@H](CCN)NC(=O)[C@@H](CC(C)C)NC(=O)[C@H](CCCN)NC(=O)[C@H](CCCNC(N)=O)NC(=O)[C@H](Cc3ccc(-c4ccccc4)cc3)NC(=O)[C@H](C(C)C)NC2=O)c1 [Compound 2617] ({CH2CO}-[Dap]Y(Carboxymethyl)D[Phe(3-Me)]V[Bip][Cit][Orn][dL][Dab][Cha]V[Orn]CAE[Aun]-OH; thioether N-14)	6.3
CC(C)C[C@H]1NC(=O)[C@H](CCCN)NC(=O)[C@H](C(C)C)NC(=O)[C@H](Cc2ccc(-c3ccccc3)cc2)NC(=O)[C@H](C(C)C)NC(=O)[C@H](Cc2c[nH]c3ccccc23)NC(=O)[C@H](CC(=O)O)NC(=O)[C@H](Cc2ccc(OCC(=O)O)cc2)NC(=O)[C@H](CN)NC(=O)CSC[C@@H](C(=O)N[C@@H](CCN)C(=O)NCCCCCCCCCCC(=O)O)NC(=O)[C@H](CCC(N)=O)NC(=O)[C@H](C(C)C)NC(=O)[C@H](CC2CCCCC2)NC(=O)[C@H](Cc2c[nH]cn2)NC1=O [Compound 2793] ({CH2CO}-[Dap]Y(Carboxymethyl)DWV[Bip]V[Orn][dL]H[Cha]VQC[Dab][Aun]-OH; thioether N-14)	21.6
Cc1cccc(C[C@@H]2NC(=O)[C@H](CC(=O)O)NC(=O)[C@H](Cc3ccncc3)NC(=O)[C@H](Cc3ccc(OCC(=O)O)cc3)NC(=O)CSC[C@@H](C(=O)N[C@@H](CCN)C(=O)NCCCCCCCCCCC(=O)O)NC(=O)[C@H]([C@@H](C)O)NC(=O)[C@H](C(C)C)NC(=O)[C@H](CC3CCCCC3)NC(=O)[C@H](CCN)NC(=O)[C@@H](CC(C)C)NC(=O)[C@H](CCCN)NC(=O)[C@H](Cc3ccc(O)cc3)NC(=O)[C@H](Cc3ccc(-c4ccccc4)cc3)NC(=O)[C@H](Cc3ccc(O)cc3)NC2=O)c1 [Compound 2734] ({CH2CO}-Y(Carboxymethyl)[4Pal]D[Phe(3-Me)]Y[Bip]Y[Orn][dL][Dab][Cha]VTC[Dab][Aun]-OH; thioether N-14)	27.2
Cc1cccc(C[C@@H]2NC(=O)[C@H](CC(=O)O)NC(=O)[C@H](Cc3ccc(OCC(=O)O)cc3)NC(=O)[C@H](CN)NC(=O)CSC[C@@H](C(=O)N[C@@H](CCN)C(=O)NCCCCCCCCCCCCC(=O)O)NC(=O)[C@H](CO)NC(=O)[C@H](C(C)(C)O)NC(=O)[C@H](CC3CCCCC3)NC(=O)[C@H](CCN)NC(=O)[C@@H](CC(C)C)NC(=O)[C@H](CCCN)NC(=O)[C@H](Cc3ccc(OCC(=O)O)cc3)NC(=O)[C@H](Cc3ccc(-c4ccccc4)cc3)NC(=O)[C@H](Cc3ccc(OCC(=O)O)cc3)NC2=O)c1 [Compound 2222] ({CH2CO}-[Dap]Y(Carboxymethyl)D[Phe(3-Me)]Y(Carboxymethyl)[Bip]Y(Carboxymethyl)[Orn][dL][Dab][Cha][Val(3-OH)]SC[Dab]-{NH(CH2)12COOH}; thioether N-14)	17.6

Further lines, results first:

IC50 [nM]	SMILES
13.8	CC(C)C[C@H]1NC(=O)[C@H](CCCN)NC(=O)[C@H](C(C)C)NC(=O)[C@H](Cc2ccc(-c3ccccc3)cc2)NC(=O)[C@H](C(C)C)NC(=O)[C@H](Cc2c[nH]c3ccccc23)NC(=O)[C@H](CC(=O)O)NC(=O)[C@H](Cc2ccc(OCC(=O)O)cc2)NC(=O)[C@H](CN)NC(=O)CSC[C@@H](C(=O)NCCOCCOCC(=O)N[C@@H](CCC(=O)O)C(=O)NCCCCCCCCCCC(=O)O)NC(=O)[C@H]([C@@H](C)O)NC(=O)[C@H](C(C)C)NC(=O)[C@H](CC2CCCCC2)NC(=O)[C@H](Cc2cnc[nH]2)NC1=O [Compound 1099] ({CH2CO}-[Dap]Y(Carboxymethyl)DWV[Bip]V[Orn][dL]H[Cha]VTC[AEEA]E[Aun]-OH; thioether N-14)
30.2	CC(C)C[C@H]1NC(=O)[C@H](CCCN)NC(=O)[C@H](C(C)C)NC(=O)[C@H](Cc2ccc(-c3ccccc3)cc2)NC(=O)[C@H](C(C)C)NC(=O)[C@H](Cc2c[nH]c3ccccc23)NC(=O)[C@H](CC(=O)O)NC(=O)[C@H](Cc2ccc(OCC(=O)O)cc2)NC(=O)[C@H](CN)NC(=O)CSC[C@@H](C(=O)NCCOCCOCC(=O)N[C@H](CCC(=O)O)C(=O)NCCCCCCCCCCC(=O)O)NC(=O)[C@H]([C@@H](C)O)NC(=O)[C@H](C(C)C)NC(=O)[C@H](CC2CCCCC2)NC(=O)[C@H](Cc2cnc[nH]2)NC1=O [Compound 1133] ({CH2CO}-[Dap]Y(Carboxymethyl)DWV[Bip]V[Orn][dL]H[Cha]VTC[AEEA][dE][Aun]-OH; thioether N-14)
13.8	CC(C)C[C@H]1NC(=O)[C@H](CCN)NC(=O)[C@H](C(C)C)NC(=O)[C@H](Cc2ccc(-c3ccccc3)cc2)NC(=O)[C@H](C(C)C)NC(=O)[C@H](Cc2c[nH]c3ccccc23)NC(=O)[C@H](CC(=O)O)NC(=O)[C@H](Cc2ccc(OCC(=O)O)cc2)NC(=O)[C@H](Cc2ccsc2)NC(=O)CSC[C@@H](C(=O)NCCOCCOCC(=O)N[C@@H](CCN)C(=O)NCCCCCCCCCCC(=O)O)NC(=O)[C@H](CCCNC(=N)N)NC(=O)[C@H](C(C)C)NC(=O)[C@H](CC2CCCCC2)NC(=O)[C@H](CCN)NC1=O [Compound 3283] ({CH2CO}-[3Thi]Y(Carboxymethyl)DWV[Bip]V[Dab][dL][Dab][Cha]VRC[AEEA][Dab][Aun]-OH; thioether N-14)
